Data on one compound can be found in patent US20120108592A1, “PHARMACEUTICAL COMPOSITIONS AND METHODS OF USE OF SALICYLANILIDES FOR TREATMENT OF HEPATITIS VIRUSES” (priority 2010, published 2012).

In general, EC50 refers to the concentration at which the effect is half-maximal. By EC90 is commonly meant the concentration needed for an effect of 90%. One may read the CC50 as the concentration at which the toxic effect on the cells reaches its halfway point. Lower therefore signals greater toxicity to the cells.

Values joined by “and” are separate entries in the source; they are usually repeats but may differ in a detail not shown here. Equal values may be shown once.

For series [1], the system named is HBV virion in 2.2.15 cells. The series is described as follows: HBV antiviral assay in 2.2.15 cells, virion (VIR) HBV DNA. Type of series: cell-based. The note with it: Hepatitis B virus.
Experimental: (§3) HBV antiviral assays were conducted as previously described [Korba, B. E. et al. Antiviral Res. 77, 56-63 (2008);].
The nature of series [2]: Secondary HCV replicon cell assay genotype 1b, cytotoxicity (neutral red dye uptake). Type of series: cell-based. The note with it: human. In general terms: In antiviral work, replicon cells carry a viral genome segment that copies itself.
Experimental: (§4) Antiviral activity of test compounds was assessed in a 3-day assay using the stably-expressing HCV replicon cell line, AVA5 (sub-genomic CONI, genotype 1b) [Korba, B. E. et al. Antiviral Res. 77, 56-63 (2008); Blight et al., Science 290, 1972-1974 (2000)] maintained as sub-confluent cultures on 96-well plates as previously described [Okuse et al., Antiviral Research 65, 23-34 (2005)]. Antiviral activity was determined by blot hybridization analysis of intracellular HCV RNA (normalized to the level of cellular B-actin RNA in each culture sample) and cytotoxicity was assessed by neutral red dye uptake after 3 days of treatment. Additional studies were performed using Huh7 cells containing another HCV replicon, H/FL-Neo, a genotype la full length construct [Blight et al., J. Virol. […] For studies involving human serum, standard culture medium (which contains 10% fetal bovine serum) and assay conditions were maintained.
Series [3] can be described thus: Secondary HCV replicon cell assay genotype 1a, cytotoxicity (neutral red dye uptake). Type of series: cell-based. To be noted: human.
Experimental: as §4
The nature of series [4]: Cytotoxicity in 2.2.15 cells (neutral red dye uptake). Type of series: cell-based. The note with it: human, nine daily doses. The procedure:
Briefly, confluent cultures of 2.2.15 cells were maintained on 96-well flat-bottomed tissue culture plates (confluence in this culture system is required for active, high levels of HBV replication equivalent to that observed in chronically-infected individuals. Cultures were treated with nine consecutive daily doses of the test compounds. HBV DNA levels were assessed by quantitative blot hybridization 24 hr. after the last treatment. Cytotoxicity was assessed by uptake of neutral red dye 24 hr. following the last treatment.

The subject of series [5] is HCV replicon cell line, AVA5 (sub-genomic CONI, genotype 1b). The experiment in a line: Primary HCV replicon cell assay, antiviral activity (intracellular HCV RNA, blot hybridization). To be noted: Hepatitis C virus, Ava5, 72 h, 3-day assay. It counts as cell-based. The procedure: (§1) Antiviral activity of test compounds was assessed in a 3-day assay using the stably-expressing HCV replicon cell line, AVA5 (sub-genomic CONI, genotype 1b) [Korba, B. E. et al. Antiviral Res. 77, 56-63 (2008); Blight et al., Science 290, 1972-1974 (2000)] maintained as sub-confluent cultures on 96-well plates as previously described [Okuse et al., Antiviral Research 65, 23-34 (2005)]. Antiviral activity was determined by blot hybridization analysis of intracellular HCV RNA (normalized to the level of cellular B-actin RNA in each culture sample) and cytotoxicity was assessed by neutral red dye uptake after 3 days of treatment. Additional studies were performed using Huh7 cells containing another HCV replicon, H/FL-Neo, a genotype la full length construct [Blight et al., J. Virol. 77, 3181-3190 (2003)]. For studies involving human serum, standard culture medium (which contains 10% fetal bovine serum) and assay conditions were maintained.
(§2) EC50, EC90 and CC50 values (±standard deviations [S.D.]) were calculated by linear regression analysis using data combined from all treated cultures (Korba, B. E. et al. Antiviral Res. 77, 56-63 (2008)). […] Selectivity index (S.I.) was calculated as CC50/EC90 for HBV assays and CC50/EC50 for HCV assays.

The subject of series [6] is HCV replicon H/FL-Neo, genotype 1a full length construct, in Huh7 cells. The experiment in a line: Secondary HCV replicon cell assay genotype 1a, antiviral activity. It counts as cell-based. The note with it: Hepatitis C virus. As for the experimental part: as §1, §2
Another series has as its system cytochrome P450 enzymes. To be noted: cited from earlier work.
Series [7] has as its system HCV replicon cell line, AVA5 (sub-genomic CONI, genotype 1b). The experiment in a line: Secondary HCV replicon cell assay genotype 1b, antiviral activity. Type of series: cell-based. To be noted: Hepatitis C virus. As for the experimental part:
as §1, §2

Series [8] relates to HBV replication intermediates in 2.2.15 cells. The experiment in a line: HBV antiviral assay in 2.2.15 cells, replication intermediates (RI) HBV DNA. It counts as cell-based. To be noted: Hepatitis B virus.
Experimental: as §3
Series [9] relates to AVA5 HCV replicon cell line. The series is described as follows: Primary HCV replicon cell assay, cytotoxicity (neutral red dye uptake). Type of series: cell-based. To be noted: 3 days of treatment.
Experimental: as §4
For series [10] the following is noted: cited from earlier work.
Setting [11] is: 2-fold depression of intracellular HCV RNA.
The mark [12] stands for this setting: 10-fold depression of intracellular HCV RNA.

On to `O=C(Nc1ncc([N+](=O)[O-])s1)c1ccccc1O` [TIZ, tizoxanide, reference compound], for which the EC50 in series [1] (read-out: EC50 (VIR)) stood at 150 nM; in [5] (setting [11]), 151 nM; in series [6] (Huh-7, 2-fold depression of intracellular HCV RNA) it was 230 nM; in series [7] (setting [11]) it was 190 nM; in series [8] (read-out: EC50 (RI)), 460 nM. In addition, the EC90 in series [1] (read-out: EC90 (VIR)) was 580 nM; in series [5] (setting [12]), 813 nM; in series [6] (Huh-7, 10-fold depression of intracellular HCV RNA), 1000 nM; in series [7] (setting [12]) it was 920 nM; in [8] (read-out: EC90 (RI)), 1200 nM. The CC50 at 3 days was found to be 28000 nM in [2] and 27000 nM in [3]. Also, the CC50 at 9 days in series [4] was > 100000 nM. For the same compound, the “inhibition of cytochrome P450 enzymes” value in the series with cytochrome P450 enzymes is recorded as “does not inhibit”. Further, in [9], half-maximal cytotoxicity (CC50) was put at 15000 nM. Moreover, in series [10] (oral dose of NTZ), the “fraction of oral dose excreted in feces as TIZ” value is “Approximately two-thirds”. In addition, the “maximum serum concentration of TIZ” value in series [10] (oral, one 500 mg NTZ tablet (Alinia) with food) is “approximately 10 μg/mL and ~37 μM”. Also, the “elimination half-life from plasma” value in series [10] (plasma) was “approximately 1.5 hours”.
